# Measured values from paper PMC8287923, “A small-molecule chemical interface for molecular programs” (Nucleic Acids Research, 2021).
# pKd: −log10 of the molar value.
# How the values were obtained:
# Assay type in all cases: biochemical
# [1] = target: TrpR (Escherichia coli, UniProt P0A881); test: purified TrpR with operator DNA template (psTTrpR); PEN-DNA fluorescent switch dose response, Hill fit
# [2] = target: T1, Tryptophan synthase subunit B (TrpB), EcB (Escherichia coli, UniProt P0A879, M149T/N171D); test: HPLC of overnight enzymatic conversion of indole and L-serine to L-trp
# T1 construct: purified standalone TrpB variant (EcB)
# T1 sequence (P0A879 2-397 M149T/N171D): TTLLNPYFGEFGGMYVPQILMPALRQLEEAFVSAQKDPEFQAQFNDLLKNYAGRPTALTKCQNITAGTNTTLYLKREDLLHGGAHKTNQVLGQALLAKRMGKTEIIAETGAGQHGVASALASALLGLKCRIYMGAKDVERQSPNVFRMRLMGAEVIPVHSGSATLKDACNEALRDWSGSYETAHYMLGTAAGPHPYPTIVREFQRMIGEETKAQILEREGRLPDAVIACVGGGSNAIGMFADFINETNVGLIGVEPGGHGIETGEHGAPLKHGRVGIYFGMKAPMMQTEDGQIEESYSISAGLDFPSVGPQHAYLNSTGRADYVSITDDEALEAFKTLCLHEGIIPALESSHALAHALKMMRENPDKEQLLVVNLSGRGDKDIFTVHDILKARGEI
# [3] = target: T2, LacI (Escherichia coli, UniProt P03023); test: purified LacI with O1 operator DNA template (psTLacI); PEN-DNA fluorescent switch dose response ([…])
# T2 construct: purified LacI with C-terminal His-tag (dimer)
SMILES,HPLC of overnight enzymatic conversion of indole and L-serine to L-trp [2],other results
N[C@@H](Cc1c[nH]c2ccccc12)C(=O)O [L-trp],,pKd [1]: 4.62
N[C@@H](CO)C(=O)O [L-serine],Enzymatic activity of EcB L-trp synthesis was confirmed through HPLC evaluation.,
c1ccc2[nH]ccc2c1 [indole],Enzymatic activity of EcB L-trp synthesis was confirmed through HPLC evaluation.,
"CC(C)S[C@@H]1O[C@H](CO)[C@H](O)[C@H](O)[C@H]1O [IPTG, isopropyl β-d-1-thiogalactopyranoside]",,pKd [3]: ~4.00
